Reference: ChEMBL document CHEMBL4837258, “Discovery of Novel UDP-N-Acetylglucosamine Acyltransferase (LpxA) Inhibitors with Activity against Pseudomonas aeruginosa” (J Med Chem, 2021)
In brackets after ≈: the same amount, converted by molar mass.

Columns and labels:
[1] = Aqueous solubility of compound incubated for 90 mins under shaking condition; type: physicochemical; details: buffer
physchem = details: 1-octanol/phosphate buffer, pH 7.4
[2] = Volume of distribution at steady state in CD1 mouse at 3 mg/kg, iv measured upto 7 hrs by LC-MS/MS analysis; type: ADME, organism-based; details: in vivo, read-out: Vdss
[3] = Volume of distribution at steady state in CD1 mouse at 85 mg/kg, iv measured upto 7 hrs by LC-MS/MS analysis; type: ADME, organism-based; details: in vivo, read-out: Vdss
[4] = Volume of distribution at steady state in CD1 mouse at 3 mg/kg, iv pretreated with ABT followed by compound treatment and measured upto 7 hrs by LC-MS/MS analysis; type: ADME, organism-based; details: in vivo, read-out: Vdss
[5] = Oral bioavailability in CD1 mouse at 5 mg/kg measured upto 7 hrs by LC-MS/MS analysis; type: ADME, organism-based; details: in vivo
[6] = AUCinfinity in CD1 mouse at 3 mg/kg, iv measured upto 7 hrs by LC-MS/MS analysis; type: ADME, organism-based; parameters: route intravenous, dose 3 mg/kg, time <=7; details: in vivo
[7] = AUCinfinity in CD1 mouse at 85 mg/kg, iv measured upto 7 hrs by LC-MS/MS analysis; type: ADME, organism-based; parameters: route intravenous, dose 85 mg/kg, time <=7; details: in vivo
[8] = AUCinfinity in CD1 mouse at 3 mg/kg, iv pretreated with ABT followed by compound treatment and measured upto 7 hrs by LC-MS/MS analysis; type: ADME, organism-based; parameters: route intravenous, dose 3 mg/kg, time <=7; details: in vivo
[9] = AUCinfinity in CD1 mouse at 5 mg/kg, po pretreated with ABT followed by compound treatment and measured upto 7 hrs by LC-MS/MS analysis; type: ADME, organism-based; parameters: route oral, dose 5 mg/kg, time <=7; details: in vivo
[10] = Volume of distribution at steady state in CD1 mouse at 1 mg/kg, iv pretreated with ABT followed by compound treatment and measured upto 7 hrs by LC-MS/MS analysis; type: ADME, organism-based; details: in vivo, read-out: Vdss
[11] = Volume of distribution at steady state in CD1 mouse at 5 mg/kg, iv pretreated with ABT followed by compound treatment and measured upto 7 hrs by LC-MS/MS analysis; type: ADME, organism-based; details: in vivo, read-out: Vdss
[12] = Oral bioavailability in CD1 mouse at 3 mg/kg pretreated with ABT followed by compound treatment and measured upto 7 hrs by LC-MS/MS analysis; type: ADME, organism-based; details: in vivo
[13] = Oral bioavailability in CD1 mouse at 30 mg/kg pretreated with ABT followed by compound treatment and measured upto 7 hrs by LC-MS/MS analysis; type: ADME, organism-based; details: in vivo
[14] = AUCinfinity in CD1 mouse at 1 mg/kg, iv pretreated with ABT followed by compound treatment and measured upto 7 hrs by LC-MS/MS analysis; type: ADME, organism-based; parameters: route intravenous, dose 1 mg/kg, time <=7; details: in vivo
[15] = AUCinfinity in CD1 mouse at 5 mg/kg, iv pretreated with ABT followed by compound treatment and measured upto 7 hrs by LC-MS/MS analysis; type: ADME, organism-based; parameters: route intravenous, dose 5 mg/kg, time <=7; details: in vivo
[16] = AUCinfinity in CD1 mouse at 3 mg/kg, po pretreated with ABT followed by compound treatment and measured upto 7 hrs by LC-MS/MS analysis; type: ADME, organism-based; parameters: route oral, dose 3 mg/kg, time <=7; details: in vivo
[17] = AUCinfinity in CD1 mouse at 30 mg/kg, po pretreated with ABT followed by compound treatment and measured upto 7 hrs by LC-MS/MS analysis; type: ADME, organism-based; parameters: route oral, dose 30 mg/kg, time <=7; details: in vivo

Row | Structure (SMILES) | solubility at […] [1] | logD at 2 h, 25 µM (physchem) | also measured
1 | N#Cc1cc(F)c(CN(Cc2nnc(N)o2)C(=O)CSc2cc(F)cc(F)c2Cl)c(F)c1 | 60 µg/mL (≈ 123 µM) | 2.4 | –
2 | N#Cc1ccc(CN(Cc2nnc(N)o2)C(=O)COc2cc(F)cc(F)c2Cl)cn1 | – | 1.4 | –
3 | N#Cc1ccc(CN(Cc2nnc(N)o2)C(=O)COc2ccccc2Cl)cn1 | 850 µg/mL (≈ 2130 µM) | 1 | –
4 | N#Cc1ccc(CN(Cc2nnc(N)o2)C(=O)COc2cc(F)cc(F)c2C2CC2)cn1 | – | 2.2 | –
5 | N#Cc1ccc(CN(Cc2nnc(N)o2)C(=O)CSc2ccccc2Cl)cn1 | 340 µg/mL (≈ 820 µM) | 1.4 | –
6 | Nc1nnc(CN(Cc2ccc(O)nc2)C(=O)COc2cc(F)cc(F)c2C2CC2)o1 | 150 µg/mL (≈ 348 µM) | 2.2 | –
7 | N#Cc1ccc(CN(Cc2nnc(N)o2)C(=O)CSc2ccccc2Cl)cc1 | 120 µg/mL (≈ 290 µM) | 2 | –
8 | N#Cc1ccc(CN(Cc2nnc(N)o2)C(=O)CSc2ccccc2OC(F)(F)F)c(F)c1 | 90 µg/mL (≈ 187 µM) | 1.6 | –
9 | CCc1ccccc1SCC(=O)N(Cc1ccc(C#N)cc1)Cc1nnc(N)o1 | – | 2.5 | –
10 | N#Cc1ccc(CN(Cc2nnc(N)o2)C(=O)CSc2ccccc2CC(F)(F)F)c(F)c1 | 90 µg/mL (≈ 188 µM) | 2.3 | –
11 | CCc1c(F)cc(F)cc1OCC(=O)N(Cc1ccc(C#N)cc1)Cc1nnc(N)o1 | – | 2.8 | Vd [10]: 3.97 L/kg; Vd [11]: 3.3 L/kg; bioavailability [12]: 48.6%; bioavailability [13]: 138%; AUC(0-inf) [14]: 218 ng·h/mL; AUC(0-inf) [15]: 1040 ng·h/mL; AUC(0-inf) [16]: 323 ng·h/mL; AUC(0-inf) [17]: 9180 ng·h/mL
12 | CCc1c(F)cc(F)cc1O[C@H](C)C(=O)N(Cc1nnc(N)o1)Cc1ccc(C#N)cc1F | – | 3 | –
13 | [2H]C([2H])(Oc1cc(F)cc(F)c1C([2H])([2H])C([2H])([2H])[2H])C(=O)N(Cc1nnc(N)o1)Cc1ccc(C#N)cc1F | – | 3 | –

Further lines, with some results ahead:

Row | solubility at […] [1] | logD at 2 h, 25 µM (physchem) | Structure (SMILES) | also measured
14 | 460 µg/mL (≈ 908 µM) | 2 | [2H]C([2H])(Oc1cc(F)cc(F)c1C([2H])([2H])C([2H])([2H])[2H])C(=O)N(Cc1nnc(N)o1)Cc1ccc(S(N)(=O)=O)cc1F | Vd [2]: 0.34 L/kg; Vd [3]: 10.3 L/kg; Vd [4]: 0.31 L/kg; bioavailability [5]: 7.4%; AUC(0-inf) [6]: 62100 ng·h/mL; AUC(0-inf) [7]: 24000 ng·h/mL; AUC(0-inf) [8]: 35300 ng·h/mL; AUC(0-inf) [9]: 7690 ng·h/mL
15 | – | 2.6 | N#Cc1ccc(CN(Cc2nnc(N)o2)C(=O)CSc2cc(F)cc(F)c2Cl)c(F)c1 | –
16 | – | 2.1 | CCc1c(F)cc(F)cc1OCC(=O)N(Cc1nnc(N)o1)Cc1ccc(S(N)(=O)=O)cc1F | –
17 | – | 1.1 | N#Cc1ccc(CN(Cc2nnc(N)o2)C(=O)CSc2ncccc2Cl)cn1 | –
18 | – | 1.5 | N#Cc1ccc(CN(Cc2nnc(N)o2)C(=O)CCc2ccccc2)cn1 | –
19 | 330 µg/mL (≈ 632 µM) | 1.8 | Nc1nnc(CN(Cc2ccc(S(N)(=O)=O)cc2F)C(=O)CSc2cc(F)cc(F)c2Cl)o1 | –
20 | – | 2.1 | [2H]C([2H])(Oc1cc(F)cc(F)c1C([2H])([2H])C([2H])([2H])[2H])C(=O)N(Cc1ccc(C#N)nc1)Cc1nnc(N)o1 | –
21 | – | 2.7 | CCc1c(F)cc(F)cc1OCC(=O)N(Cc1nnc(N)o1)Cc1ccc(C#N)cc1F | –
22 | – | 2.1 | Nc1nnc(CN(Cc2ccc(S(N)(=O)=O)cc2F)C(=O)COc2cc(F)cc(F)c2C2CC2)o1 | –
